Earlier results in patent publication US20240408101A1, “COMPOSITION AND METHODS OF TREATMENT USING […] - ENHANCED SUPPLEMENTATION” (Xygenyx Inc., priority 2023, published 2024).
Where a SMILES comes first, the peptide text is derived from it.

Assays:
[1] = mice
[2] = system: wide dynamic range neurons in the ventroposterolateral nucleus of the thalamus
[3] = dietary supplementation, doses up to 400 IU/day, controlled trials
[4] = dietary supplementation, doses up to 400 IU/day
F2-isoprostane = conditions: large doses of 1600-3200 IU/day
[5] = in combination with 10-20 mg β-carotene and 400-500 mg vitamin C, doses around 400-500 IU
[6] = compared to α-tocopherol taken as 1.0
skin [7] = conditions: topical application, concentrations 0.5-5%
[8] = even when dietary intake occurs in equal portions
skin [9] = conditions: as penetration enhancer for transdermal drugs
[10] = in vivo
[11] = in vivo; remark: listed apart in the source
skin [12] = conditions: topical formulations, within four weeks of treatment

CC(CN)C(=O)O [L-BAIBA, L-beta-aminoisobutyric acid]
tolerated dose [1]: 10-100 mg/kg of bodyweight

CCCCCc1cc(O)c2c(c1)OC(C)(C)C1CCC(C)=CC21 (centres unmarked) [THC, Δ-9-tetrahydrocannabinol]
analgesic power relative to morphine [2]: ten times more powerful than morphine

Cc1c(C)c2c(c(C)c1O)CC[C@@](C)(CCC[C@H](C)CCC[C@H](C)CCCC(C)C)O2 [α-tocopherol]
reduction of risk of developing neurodegenerative diseases [3]: ≤ 24% | reduction of risk of coronary disease [4]: up to 34% | blood plasma concentration of F2-isoprostane (F2-isoprostane): significantly lower | reduction in the development of age-related cataracts [5]: 23% | relative biological activity [6]: 1.0

C=CCCCCCCCCC(=O)N[C@@H](Cc1ccccc1)C(=O)O [UP, Undecylenoyl phenylalanine]
time to skin lightening effects (skin [7]): ≥ 7 days

Cc1c(O)cc2c(c1C)O[C@](C)(CCC[C@H](C)CCC[C@H](C)CCCC(C)C)CC2 [γ-tocopherol]
concentration in vivo relative to α-tocopherol [8]: roughly 10% | relative biological activity [6]: 0.1

CC12CCC(CC1)C(C)(C)O2 [eucalyptol, 1,8-epoxy-p-menthane]
increase of transdermal drug uptake, factor (skin [9]): more than 10

CCNC(=O)CC[C@H](N)C(=O)O [Theanine]
dose considered safe and well-tolerated [10]: up to 400 mg per day

Cc1cc(O)c(C)c2c1O[C@](C)(CCC[C@H](C)CCC[C@H](C)CCCC(C)C)CC2 [β-tocopherol]
relative biological activity [6]: 0.5

HGH: hormone comprising a peptide chain synthesized in the pituitary gland
biological half-life [11]: 10-20 minutes

CC[C@H](C)[C@H](NC(=O)[C@H](CC(=O)O)NC(=O)[C@@H](N)CCCCN)C(=O)N[C@@H](CCCNC(N)=O)C(N)=O [tripeptide-10 citrulline, Tripeptide-10 citrulline] (HELM PEPTIDE1{K.D.I.[Cit].[am]}$$$$V2.0)
improvement of suppleness (skin [12]): ≤ 54%

CC(C)[C@@H]1CC[C@@H](C)C[C@H]1O [Menthol]
increase of transdermal drug uptake, factor (skin [9]): ≥ 10

Cc1cc(O)cc2c1O[C@](C)(CCC[C@H](C)CCC[C@H](C)CCCC(C)C)CC2 [δ-tocopherol]
relative biological activity [6]: 0.03
